Patent publication US8343475B2, “Small cationic antimicrobial peptides” (priority 2006, dated 2013)
No end group written: not given here.

Tests used:
Experiment in all cases: Chemokine induction in PBMC (capture ELISA)
Assay type in all cases: cell-based
[1] = test system: MCP-1 release by human PBMC; settings: background (204) subtracted
Procedure: FIG. 15. Induction of MCP-1 release by 7.5×10^5 human PBMC in response to treatment with 20 or 100 μg/ml of different peptides for 24 hours.
(§1) Venous blood (20 ml) from healthy volunteers was collected in Vacutainer® collection tubes containing sodium heparin as an anticoagulant (Becton Dickinson, Mississauga, ON) in accordance with UBC ethical approval and guidelines. Blood was diluted 1:1 with complete RPMI 1640 medium and separated by centrifugation over a Ficoll-Paque® Plus (Amersham Biosciences, Piscataway, N.J., USA) density gradient. White blood cells were isolated from the buffy coat, washed twice in RPMI 1640 complete medium, and the number of peripheral blood mononuclear cells (PBMC) was determined by trypan blue exclusion. PBMC (5×10^5) were seeded into 12-well tissue culture dishes (Falcon; Becton Dickinson) at 0.75 to 1×10^6 cells/ml at 37° C. in 5% CO2. The above conditions were chosen to mimic conditions for circulating blood monocytes entering tissues at the site of infection via extravasation.
(§2) Following incubation of the cells under various treatment regimens, the tissue culture supernatants were centrifuged at 1000×g for 5 min, then at 10,000×g for 2 min to obtain cell-free samples. Supernatants were aliquoted and then stored at −20° C. prior to assay for various chemokines by capture ELISA (eBioscience and BioSource International Inc., CA, USA respectively)

[2] = test system: MCP-3 release by human PBMC; settings: background (6) subtracted
Procedure: FIG. 16. Induction of MCP3 release by 7.5×10^5 human PBMC in response to treatment with 20 or 100 μg/ml of different peptides for 24 hours.
as §1, §2

[3] = test system: CXCL1 (Gro-α) release by human PBMC; settings: background (196) subtracted
Procedure: FIG. 17. Induction of CXCL1 (Gro-α) release by 7.5×10^5 human PBMC in response to treatment with 20 or 100 μg/ml of different peptides for 24 hours.
as §1, §2

1004 (RFWKVRVKYIRF) [compound 1004]
Chemokine induction MCP-1 ([1]; 20 μg/ml peptide): 300 pg/mL | Chemokine induction MCP-1 ([1]; 100 μg/ml peptide): 1680 pg/mL | Chemokine induction MCP-3 ([2]; 20 μg/ml peptide): 1 pg/mL | Chemokine induction MCP-3 ([2]; 100 μg/ml peptide): 30 pg/mL | Chemokine induction Gro-α ([3]; 20 μg/ml peptide): 55 pg/mL | Chemokine induction Gro-α ([3]; 100 μg/ml peptide): 336 pg/mL

WRWRVRVWR (WRWRVRVWR-NH2) [compound 1031]
Chemokine induction MCP-1 ([1]; 20 μg/ml peptide): 875 pg/mL | Chemokine induction MCP-1 ([1]; 100 μg/ml peptide): 552 pg/mL | Chemokine induction MCP-3 ([2]; 20 μg/ml peptide): 9 pg/mL | Chemokine induction MCP-3 ([2]; 100 μg/ml peptide): 9 pg/mL | Chemokine induction Gro-α ([3]; 20 μg/ml peptide): 172 pg/mL | Chemokine induction Gro-α ([3]; 100 μg/ml peptide): 112 pg/mL

1040 (FQVVKIKVR) [compound 1040]
Chemokine induction MCP-1 ([1]; 20 μg/ml peptide): 74 pg/mL | Chemokine induction MCP-1 ([1]; 100 μg/ml peptide): 1143 pg/mL | Chemokine induction MCP-3 ([2]; 20 μg/ml peptide): 0 pg/mL | Chemokine induction MCP-3 ([2]; 100 μg/ml peptide): 9 pg/mL | Chemokine induction Gro-α ([3]; 20 μg/ml peptide): 2 pg/mL | Chemokine induction Gro-α ([3]; 100 μg/ml peptide): 264 pg/mL

WIVIWRR (WIVIWRR-NH2) [compound 1043]
Chemokine induction MCP-1 ([1]; 20 μg/ml peptide): 98 pg/mL | Chemokine induction MCP-1 ([1]; 100 μg/ml peptide): 1998 pg/mL | Chemokine induction MCP-3 ([2]; 20 μg/ml peptide): 0 pg/mL | Chemokine induction MCP-3 ([2]; 100 μg/ml peptide): 21 pg/mL | Chemokine induction Gro-α ([3]; 20 μg/ml peptide): 26 pg/mL | Chemokine induction Gro-α ([3]; 100 μg/ml peptide): 881 pg/mL

1038 (IVVRRVIRK) [compound 1038]
Chemokine induction MCP-1 ([1]; 20 μg/ml peptide): 25 pg/mL | Chemokine induction MCP-1 ([1]; 100 μg/ml peptide): 1552 pg/mL | Chemokine induction MCP-3 ([2]; 20 μg/ml peptide): 0 pg/mL | Chemokine induction MCP-3 ([2]; 100 μg/ml peptide): 41 pg/mL | Chemokine induction Gro-α ([3]; 20 μg/ml peptide): 12 pg/mL | Chemokine induction Gro-α ([3]; 100 μg/ml peptide): 518 pg/mL

VQLRIWVRR (VQLRIWVRR-NH2) [compound 1006]
Chemokine induction MCP-1 ([1]; 20 μg/ml peptide): 392 pg/mL | Chemokine induction MCP-1 ([1]; 100 μg/ml peptide): 3004 pg/mL | Chemokine induction MCP-3 ([2]; 20 μg/ml peptide): 0 pg/mL | Chemokine induction MCP-3 ([2]; 100 μg/ml peptide): 58 pg/mL | Chemokine induction Gro-α ([3]; 20 μg/ml peptide): 65 pg/mL | Chemokine induction Gro-α ([3]; 100 μg/ml peptide): 1245 pg/mL

1003 (IVWKIKRWWVGR) [compound 1003]
Chemokine induction MCP-1 ([1]; 20 μg/ml peptide): 31 pg/mL | Chemokine induction MCP-1 ([1]; 100 μg/ml peptide): 1361 pg/mL | Chemokine induction MCP-3 ([2]; 20 μg/ml peptide): 0 pg/mL | Chemokine induction MCP-3 ([2]; 100 μg/ml peptide): 5 pg/mL | Chemokine induction Gro-α ([3]; 20 μg/ml peptide): 65 pg/mL | Chemokine induction Gro-α ([3]; 100 μg/ml peptide): 170 pg/mL

1015 (VLIRWNGKK) [compound 1015]
Chemokine induction MCP-1 ([1]; 20 μg/ml peptide): 113 pg/mL | Chemokine induction MCP-1 ([1]; 100 μg/ml peptide): 644 pg/mL | Chemokine induction MCP-3 ([2]; 20 μg/ml peptide): 0 pg/mL | Chemokine induction MCP-3 ([2]; 100 μg/ml peptide): 10 pg/mL | Chemokine induction Gro-α ([3]; 20 μg/ml peptide): 42 pg/mL | Chemokine induction Gro-α ([3]; 100 μg/ml peptide): 178 pg/mL

1025 (RRIVKKFQIVRR) [compound 1025]
Chemokine induction MCP-1 ([1]; 20 μg/ml peptide): 109 pg/mL | Chemokine induction MCP-1 ([1]; 100 μg/ml peptide): 284 pg/mL | Chemokine induction MCP-3 ([2]; 20 μg/ml peptide): 1 pg/mL | Chemokine induction MCP-3 ([2]; 100 μg/ml peptide): 3 pg/mL | Chemokine induction Gro-α ([3]; 20 μg/ml peptide): -3 pg/mL | Chemokine induction Gro-α ([3]; 100 μg/ml peptide): 32 pg/mL

1042 (IVWIWRR) [compound 1042]
Chemokine induction MCP-1 ([1]; 20 μg/ml peptide): -7 pg/mL | Chemokine induction MCP-1 ([1]; 100 μg/ml peptide): 12 pg/mL | Chemokine induction MCP-3 ([2]; 20 μg/ml peptide): 3 pg/mL | Chemokine induction MCP-3 ([2]; 100 μg/ml peptide): 3 pg/mL | Chemokine induction Gro-α ([3]; 20 μg/ml peptide): 44 pg/mL | Chemokine induction Gro-α ([3]; 100 μg/ml peptide): 9 pg/mL

1029 (KQFRIRVRV) [compound 1029]
Chemokine induction MCP-1 ([1]; 20 μg/ml peptide): 296 pg/mL | Chemokine induction MCP-1 ([1]; 100 μg/ml peptide): 205 pg/mL | Chemokine induction MCP-3 ([2]; 20 μg/ml peptide): 3 pg/mL | Chemokine induction MCP-3 ([2]; 100 μg/ml peptide): 3 pg/mL | Chemokine induction Gro-α ([3]; 20 μg/ml peptide): 49 pg/mL | Chemokine induction Gro-α ([3]; 100 μg/ml peptide): 60 pg/mL

1017 (KRIVRRLVARIV) [compound 1017]
Chemokine induction MCP-1 ([1]; 20 μg/ml peptide): 585 pg/mL | Chemokine induction MCP-1 ([1]; 100 μg/ml peptide): 1019 pg/mL | Chemokine induction MCP-3 ([2]; 20 μg/ml peptide): 0 pg/mL | Chemokine induction MCP-3 ([2]; 100 μg/ml peptide): 0 pg/mL | Chemokine induction Gro-α ([3]; 20 μg/ml peptide): 56 pg/mL | Chemokine induction Gro-α ([3]; 100 μg/ml peptide): 250 pg/mL

1024 (RIRVIVLKK) [compound 1024]
Chemokine induction MCP-1 ([1]; 20 μg/ml peptide): 285 pg/mL | Chemokine induction MCP-1 ([1]; 100 μg/ml peptide): 81 pg/mL | Chemokine induction MCP-3 ([2]; 20 μg/ml peptide): 1 pg/mL | Chemokine induction MCP-3 ([2]; 100 μg/ml peptide): 0 pg/mL | Chemokine induction Gro-α ([3]; 20 μg/ml peptide): 20 pg/mL | Chemokine induction Gro-α ([3]; 100 μg/ml peptide): -21 pg/mL

1027 (KKQVSRVKVWRK) [compound 1027]
Chemokine induction MCP-1 ([1]; 20 μg/ml peptide): 54 pg/mL | Chemokine induction MCP-1 ([1]; 100 μg/ml peptide): 1466 pg/mL | Chemokine induction MCP-3 ([2]; 20 μg/ml peptide): 0 pg/mL | Chemokine induction MCP-3 ([2]; 100 μg/ml peptide): 14 pg/mL | Chemokine induction Gro-α ([3]; 20 μg/ml peptide): 8 pg/mL | Chemokine induction Gro-α ([3]; 100 μg/ml peptide): 204 pg/mL

1016 (LRIRWIFKR) [compound 1016]
Chemokine induction MCP-1 ([1]; 20 μg/ml peptide): 269 pg/mL | Chemokine induction MCP-1 ([1]; 100 μg/ml peptide): 819 pg/mL | Chemokine induction MCP-3 ([2]; 20 μg/ml peptide): 1 pg/mL | Chemokine induction MCP-3 ([2]; 100 μg/ml peptide): 27 pg/mL | Chemokine induction Gro-α ([3]; 20 μg/ml peptide): 26 pg/mL | Chemokine induction Gro-α ([3]; 100 μg/ml peptide): 247 pg/mL
